What was measured:
AR = molecular target: T1, AR (Rattus norvegicus, UniProt P15207); conditions: castrated rats
T1 sequence (P15207 1-902): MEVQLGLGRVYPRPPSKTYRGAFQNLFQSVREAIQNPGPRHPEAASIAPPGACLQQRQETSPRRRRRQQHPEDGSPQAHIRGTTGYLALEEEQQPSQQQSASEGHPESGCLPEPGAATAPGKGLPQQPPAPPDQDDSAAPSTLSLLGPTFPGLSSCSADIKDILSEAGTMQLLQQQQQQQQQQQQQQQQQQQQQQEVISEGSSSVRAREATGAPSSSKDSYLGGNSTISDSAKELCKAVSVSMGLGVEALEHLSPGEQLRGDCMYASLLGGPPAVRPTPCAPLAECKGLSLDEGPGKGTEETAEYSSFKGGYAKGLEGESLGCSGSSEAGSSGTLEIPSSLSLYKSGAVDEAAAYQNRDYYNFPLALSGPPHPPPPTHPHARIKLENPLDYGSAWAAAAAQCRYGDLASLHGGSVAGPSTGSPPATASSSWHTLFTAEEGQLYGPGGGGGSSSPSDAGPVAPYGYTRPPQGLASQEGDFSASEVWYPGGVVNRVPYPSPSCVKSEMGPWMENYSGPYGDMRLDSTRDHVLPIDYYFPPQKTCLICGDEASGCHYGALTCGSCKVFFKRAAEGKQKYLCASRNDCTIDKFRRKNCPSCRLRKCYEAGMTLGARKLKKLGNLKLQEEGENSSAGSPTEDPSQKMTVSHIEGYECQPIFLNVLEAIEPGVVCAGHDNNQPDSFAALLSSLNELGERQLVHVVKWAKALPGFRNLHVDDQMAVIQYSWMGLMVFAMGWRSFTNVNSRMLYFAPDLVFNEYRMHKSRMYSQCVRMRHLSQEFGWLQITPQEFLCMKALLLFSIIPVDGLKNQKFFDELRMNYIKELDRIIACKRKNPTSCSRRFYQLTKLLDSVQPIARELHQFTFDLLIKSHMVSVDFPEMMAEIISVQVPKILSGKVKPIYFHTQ
From the text: The activity of compounds of the present invention as AR agonists was investigated in an immature male rat model, a recognized test of anabolic effects in muscle and sustaining effects in sex organs for a given compound, as described in L. G. Hershberger et al., Proc. Soc. […] Biol. Med., 83, 175 (1953); B. L. Beyler et al, “Methods for evaluating anabolic and catabolic agents in laboratory animals”, J. Amer. Med. Women's Ass., 23, 708 (1968); H. Fukuda et al., “Investigations of the levator ani muscle as an anabolic steroid assay”, Nago Dai. Yak. Ken. Nem. 14, 84 (1966) the disclosures of which are herein incorporated by reference.
The basis of this assay lies in the well-defined action of androgenic agents on the maintenance and growth of muscle tissues and sexual accessory organs in animals and man. […] J. Anat. […] Ital. Biol. Sper. […] II. […] Ital. Biol. Sper. 42, 1600 (1966); A. Boris et al., Steroids 15, 61 (1970). As described above, the effects of androgens on maintenance of male sexual accessory organs, such as the prostate and seminal vesicles, is well described. Castration results in rapid involution and atrophy of the prostate and seminal vesicles. This effect can be reversed by exogenous addition of androgens. […]

glucocorticoid receptor = glucocorticoid receptor (Homo sapiens, UniProt P04150); conditions: concentration ≦10 μM; A549 cells, 10 ng/mL PMA, 7 h
Sequence of glucocorticoid receptor (P04150 whole entry): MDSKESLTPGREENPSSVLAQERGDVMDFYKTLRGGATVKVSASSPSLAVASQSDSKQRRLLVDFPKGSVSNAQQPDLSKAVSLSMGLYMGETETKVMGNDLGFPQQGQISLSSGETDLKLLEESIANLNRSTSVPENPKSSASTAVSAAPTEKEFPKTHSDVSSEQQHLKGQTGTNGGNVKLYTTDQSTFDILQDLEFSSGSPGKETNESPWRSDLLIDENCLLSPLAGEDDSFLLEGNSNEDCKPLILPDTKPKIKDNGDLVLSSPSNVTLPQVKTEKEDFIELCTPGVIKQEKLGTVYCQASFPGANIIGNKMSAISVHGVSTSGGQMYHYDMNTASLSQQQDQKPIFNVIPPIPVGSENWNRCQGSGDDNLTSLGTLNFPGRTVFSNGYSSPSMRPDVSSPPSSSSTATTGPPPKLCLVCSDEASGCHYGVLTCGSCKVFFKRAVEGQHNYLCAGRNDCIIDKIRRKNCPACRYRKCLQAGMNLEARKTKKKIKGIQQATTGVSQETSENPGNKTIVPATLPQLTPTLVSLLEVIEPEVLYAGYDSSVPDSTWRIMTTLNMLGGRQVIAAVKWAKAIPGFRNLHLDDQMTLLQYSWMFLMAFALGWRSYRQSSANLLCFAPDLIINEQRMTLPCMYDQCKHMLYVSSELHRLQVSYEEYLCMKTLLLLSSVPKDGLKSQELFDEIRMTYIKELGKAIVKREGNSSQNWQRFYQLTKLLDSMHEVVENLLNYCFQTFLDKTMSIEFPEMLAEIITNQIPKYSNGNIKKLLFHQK
Procedure: The AP-1 assay is a cell-based luciferase reporter assay. A549 cells, which contain endogenous glucocorticoid receptor, were stably transfected with an AP-1 DNA binding site attached to the luciferase gene. Cells are then grown in RPMI+10% fetal calf serum (charcoal-treated)+Penicillin/Streptomycin with 0.5 mg/mL geneticin. Cells are plated the day before the assay at approximately 40000 cells/well. On assay day, the media is removed by aspiration and 20 μL assay buffer (RPMI without phenol red+10% FCS (charcoal-treated)+Pen/Strep) is added to each well. At this point either 20 μL assay buffer (control experiments), the compounds of the present invention (“test compounds”) (dissolved in DMSO and added at varying concentrations) or dexamethasome (100 nM in DMSO, positive control) are added to each well. The plates are then pre-incubated for 15 min at 37° C., followed by stimulation of the cells with 10 ng/mL PMA. The plates are then incubated for 7 h at 37° C. after which 40 μL luciferase substrate reagent is added to each well. Activity is measured by analysis in a luminometer as compared to control experiments treated with buffer or dexamethasome.

wild type AR = conditions: read-out: Kd for [3H]-DHT; MDA 453 cells (wild type AR), Scatchard analysis
From the text: For the saturation analysis, the difference between the total binding and the non-specific binding, was defined as specific binding. […] See e.g. D. Rodbard, Mathematics and statistics of ligand assays: an illustrated guide: In: J. Langon and J. J. Clapp, eds., Ligand Assay, Masson Publishing U.S.A., Inc., New York, pp. 45-99, (1981), the disclosure of which is herein incorporated by reference.
Two replicates were used for each sample.
[formula] After correcting for non-specific binding, IC50 values were determined. […] C2C12 Mouse Myoblast Transactivation Assay

Compound: CCC(=O)O[C@H]1CC[C@H]2[C@@H]3CCC4=CC(=O)CC[C@]4(C)[C@H]3CC[C@]12C [TP, testosterone propionate]
- EC50 (increase in organ weight) (AR): ~0.03 mg
- potency relative to free T (AR; organ weight increase): 10-30 fold

Compound: C[C@@H]1C[C@H]2[C@@H]3CCC4=CC(=O)C=C[C@]4(C)[C@@]3(F)[C@@H](O)C[C@]2(C)[C@@]1(O)C(=O)CO [dexamethasone]
- % inhibition of the AP-1 reporter system vs buffer control with PMA (glucocorticoid receptor): 65%

Compound: tritiated dihydrotestosterone [[^3H]-DHT]
- Kd (wild type AR): 0.7 nM

— patent publication US7732480B2, “Bicyclic compounds as modulators of androgen receptor function and method” (Bristol-Myers Squibb Company, priority 2004, dated 2010)
